# pIC50: −log10 of the molar value. The source made the active and inactive calls. No cut-off for these calls is given here.
# Experiments:
# Format in all cases: cell-based
# [1] = Cytotoxicity against HEK-Blue cells assessed as residual metabolic activity up to 25 uM measured after 24 hrs by MTS assay relative to untreated control; conditions: human, read-out: Activity
# [2] = molecular target: Nucleotide-binding oligomerization domain-containing protein 2 (Homo sapiens, UniProt Q9HC29); test: Inhibition of human NOD2 over-expressed in HEK-Blue cells assessed as inhibition of […] NF-kappaB transcriptional activity preincubated for 1 hr followed by addition of C12-iE-DAP measured after 18 hrs by SEAP reporter gene assay
# [3] = molecular target: T1, Nucleotide-binding oligomerization domain-containing protein 1 (Homo sapiens, UniProt Q9Y239); test: Inhibition of human NOD1 over-expressed in HEK-Blue cells assessed as inhibition of […] NF-kappaB transcriptional activity preincubated for 1 hr followed by addition of C12-iE-DAP measured after 18 hrs by SEAP reporter gene assay
# T1 sequence (Q9Y239 whole entry): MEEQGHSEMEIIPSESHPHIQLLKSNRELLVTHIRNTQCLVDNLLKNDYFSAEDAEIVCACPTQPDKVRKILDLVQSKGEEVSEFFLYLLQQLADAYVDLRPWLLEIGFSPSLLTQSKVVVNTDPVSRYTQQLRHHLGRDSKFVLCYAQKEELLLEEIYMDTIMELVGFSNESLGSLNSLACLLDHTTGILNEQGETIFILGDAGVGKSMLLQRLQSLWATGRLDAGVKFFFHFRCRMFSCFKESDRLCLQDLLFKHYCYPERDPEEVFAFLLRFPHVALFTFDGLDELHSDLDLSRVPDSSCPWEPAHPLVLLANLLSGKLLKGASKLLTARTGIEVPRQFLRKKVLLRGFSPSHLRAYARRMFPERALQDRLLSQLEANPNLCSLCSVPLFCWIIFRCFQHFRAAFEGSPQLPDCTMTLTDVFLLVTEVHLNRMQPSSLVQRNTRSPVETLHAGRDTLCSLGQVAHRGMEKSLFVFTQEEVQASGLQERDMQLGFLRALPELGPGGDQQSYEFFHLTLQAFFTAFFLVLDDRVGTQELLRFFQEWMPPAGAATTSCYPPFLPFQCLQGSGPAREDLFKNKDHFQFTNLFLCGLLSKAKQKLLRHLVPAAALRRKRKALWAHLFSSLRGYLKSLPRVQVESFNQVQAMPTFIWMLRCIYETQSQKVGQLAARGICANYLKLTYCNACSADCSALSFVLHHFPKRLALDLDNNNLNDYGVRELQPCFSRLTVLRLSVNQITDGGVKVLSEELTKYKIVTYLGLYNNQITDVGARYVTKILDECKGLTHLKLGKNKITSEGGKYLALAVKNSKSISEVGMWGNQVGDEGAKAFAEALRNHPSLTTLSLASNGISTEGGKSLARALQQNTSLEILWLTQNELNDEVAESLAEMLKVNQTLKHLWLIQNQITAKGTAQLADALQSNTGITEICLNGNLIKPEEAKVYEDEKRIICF
# [4] = molecular target: T2, Nucleotide-binding oligomerization domain-containing protein 1 (Homo sapiens) (UniProt Q9Y239); test: Inhibition of human NOD1 over-expressed in HEK-Blue cells assessed as inhibition of […] NF-kappaB transcriptional activity measured as residual activity at 25 uM preincubated for 1 hr followed by addition of C12-iE-DAP measured after 18 hrs by SEAP reporter gene assay relative to control
# T2 sequence (whole entry): T1 sequence (Q9Y239 whole entry)
# Sequence of Nucleotide-binding oligomerization domain-containing protein 2 (Q9HC29 whole entry, the tested form may be a part): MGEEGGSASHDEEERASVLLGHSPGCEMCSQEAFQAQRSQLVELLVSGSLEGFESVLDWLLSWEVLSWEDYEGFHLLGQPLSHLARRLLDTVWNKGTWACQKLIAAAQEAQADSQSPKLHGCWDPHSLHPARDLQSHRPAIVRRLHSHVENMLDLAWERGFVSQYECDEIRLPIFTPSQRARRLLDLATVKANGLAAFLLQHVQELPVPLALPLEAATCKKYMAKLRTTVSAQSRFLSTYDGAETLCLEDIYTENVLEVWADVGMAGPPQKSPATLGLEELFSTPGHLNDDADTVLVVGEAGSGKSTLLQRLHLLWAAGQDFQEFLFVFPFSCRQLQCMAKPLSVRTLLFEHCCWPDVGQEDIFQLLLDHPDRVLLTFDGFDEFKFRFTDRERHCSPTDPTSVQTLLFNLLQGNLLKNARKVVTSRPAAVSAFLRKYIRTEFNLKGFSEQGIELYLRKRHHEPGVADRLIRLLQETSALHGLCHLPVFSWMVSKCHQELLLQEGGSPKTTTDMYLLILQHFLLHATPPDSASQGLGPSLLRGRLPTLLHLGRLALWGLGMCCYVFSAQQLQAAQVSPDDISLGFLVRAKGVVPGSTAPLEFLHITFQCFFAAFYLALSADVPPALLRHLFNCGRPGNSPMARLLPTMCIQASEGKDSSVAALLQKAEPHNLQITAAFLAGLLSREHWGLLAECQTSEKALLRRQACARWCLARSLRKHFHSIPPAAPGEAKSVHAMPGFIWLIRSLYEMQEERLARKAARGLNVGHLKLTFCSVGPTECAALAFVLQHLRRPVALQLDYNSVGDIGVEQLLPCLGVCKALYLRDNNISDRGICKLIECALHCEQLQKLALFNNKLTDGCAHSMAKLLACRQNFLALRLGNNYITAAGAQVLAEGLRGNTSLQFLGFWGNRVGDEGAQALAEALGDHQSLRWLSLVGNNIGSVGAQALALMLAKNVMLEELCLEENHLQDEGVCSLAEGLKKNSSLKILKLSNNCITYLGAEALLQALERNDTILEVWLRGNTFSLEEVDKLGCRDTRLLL
smiles,measurement,setting,value
N=C1Cc2ccccc2N1Cc1ccc(Cl)cc1,viability at 24 h,[1],≥ 80%
same,pIC50,[2],< 4.60
same,pIC50,[3],4.80
same,Activity,[4],44%
N=C1Cc2ccccc2N1Cc1ccccc1,viability at 24 h,[1],≥ 80%
same,Activity,[4],72%
Cc1ccc(S(=O)(=O)n2c(N)nc3ccccc32)cc1,viability at 24 h,[1],≥ 80%
same,pIC50,[2],4.26
same,Activity,[4],9%
N=C1Cc2ccccc2N1Cc1ccc(C(F)(F)F)cc1,viability at 24 h,[1],≥ 80%
same,Activity,[4],inactive
CCOC(=O)c1cc2ccccc2n1S(=O)(=O)c1ccc([N+](=O)[O-])cc1,viability at 24 h,[1],≥ 80%
same,pIC50,[2],4.77
same,pIC50,[3],4.82
same,Activity,[4],27%
O=C(O)c1cc2ccccc2n1Cc1ccc(Cl)cc1,viability at 24 h,[1],≥ 80%
CCOC(=O)c1cc2ccccc2n1S(=O)(=O)c1ccc(Cl)cc1,viability at 24 h,[1],≥ 80%
same,pIC50,[2],4.63
same,pIC50,[3],4.70
same,Activity,[4],30%
CCOC(=O)c1cc2ccccc2n1Cc1ccc(C(C)C)cc1,viability at 24 h,[1],≥ 80%
same,Activity,[4],42%
CC(C)c1ccc(CN2C(=N)Cc3ccccc32)cc1,viability at 24 h,[1],≥ 80%
same,Activity,[4],inactive
Cc1ccc(S(=O)(=O)n2c(C(=O)NN)cc3ccccc32)cc1,viability at 24 h,[1],≥ 80%
same,Activity,[4],68%
CCOC(=O)c1cc2ccccc2n1S(=O)(=O)c1ccc(F)cc1,viability at 24 h,[1],≥ 80%
same,pIC50,[2],4.90
same,pIC50,[3],5.04
same,Activity,[4],24%
N=C1Cc2ccccc2N1Cc1ccc(C2CC2)cc1,viability at 24 h,[1],≥ 80%
same,Activity,[4],inactive
CCOC(=O)c1cc2ccccc2n1S(=O)(=O)c1ccc(C)cc1,viability at 24 h,[1],≥ 80%
same,pIC50,[2],5.19
same,pIC50,[3],5.24
same,Activity,[4],24%
CCOC(=O)c1cc2ccccc2n1Cc1ccc(C)cc1,viability at 24 h,[1],≥ 80%
same,pIC50,[2],5.04
same,pIC50,[3],5.11
same,Activity,[4],24%
CCOC(=O)c1cc2ccccc2n1Cc1ccc(F)cc1,viability at 24 h,[1],≥ 80%
same,Activity,[4],53%
Cc1ccc(S(=O)(=O)N2C(=N)Cc3ccccc32)cc1,viability at 24 h,[1],≥ 80%
CCOC(=O)c1cc2ccccc2n1S(=O)(=O)c1ccc(OC)cc1,viability at 24 h,[1],≥ 80%
same,Activity,[4],36%
CCOC(=O)c1cc2ccccc2n1Cc1ccccc1,viability at 24 h,[1],≥ 80%
same,Activity,[4],58%
Cc1ccc(S(=O)(=O)n2c(C(=O)O)cc3ccccc32)cc1,viability at 24 h,[1],≥ 80%
CCOC(=O)c1cc2ccccc2n1Cc1ccc(C(F)(F)F)cc1,viability at 24 h,[1],≥ 80%
same,Activity,[4],46%
Cc1ccc(S(=O)(=O)n2c(NC(=O)OC(C)(C)C)cc3ccccc32)cc1,viability at 24 h,[1],≥ 80%
Cc1ccc(S(=O)(=O)n2c(C(N)=O)cc3ccccc32)cc1,viability at 24 h,[1],≥ 80%
same,Activity,[4],76%
CCOC(=O)c1cc2ccccc2n1C(=O)c1ccc(C)cc1,viability at 24 h,[1],≥ 80%
same,pIC50,[2],4.61
same,pIC50,[3],4.80
CCOC(=O)c1cc2ccccc2n1Cc1ccc(Br)cc1,viability at 24 h,[1],≥ 80%
same,Activity,[4],45%
CCOC(=O)c1cc2ccccc2n1S(=O)(=O)c1ccc(C(F)(F)F)cc1,viability at 24 h,[1],≥ 80%
same,Activity,[4],37%
CCOC(=O)c1cc2ccccc2n1Cc1ccc(C2CC2)cc1,viability at 24 h,[1],≥ 80%
same,Activity,[4],39%
CC(C)(C)OC(=O)Nc1cc2ccccc2n1Cc1ccc(Cl)cc1,viability at 24 h,[1],≥ 80%
Cc1ccc(CN2C(=N)Cc3ccccc32)cc1,viability at 24 h,[1],≥ 80%
same,Activity,[4],inactive
CCOC(=O)c1cc2ccccc2n1Cc1ccc(Cl)cc1,viability at 24 h,[1],≥ 80%
same,Activity,[4],29%
N=C1Cc2ccccc2N1Cc1ccc(Br)cc1,viability at 24 h,[1],≥ 80%
same,Activity,[4],inactive

# — ChEMBL document CHEMBL4428099, “Identification of indole scaffold-based dual inhibitors of NOD1 and NOD2” (Bioorg Med Chem, 2016)
